Assays:
Assay in all cases: Cell panel screen (CellTiter-Glo)
Assay type in all cases: cell-based, human
HPAF-II = HPAF-II (Pancreas), 20 micromolar, 72 hrs
Procedure: (§1) All cells were obtained from the cell bank of the American Type Culture Collection (ATCC) and cultured in the supplier's recommended media supplemented with 10% FBS. The cell panel screen was measured using the CellTiter-Glo assay (Promega, Madison, WI) following a standard protocol. Briefly, cancer cells were seeded in 96-well plates and cultured overnight at 37°C with or without 5% CO2 in an incubator. Each compound was dissolved with limited DMSO and diluted to a certain concentration with culture medium and then added to the corresponding well of the cell plate. The final concentration of compound was 20 μM. The control cells (without treatment) received the same amount of DMSO and were incubated under the same conditions. After 72 h cultivation, 100 μL of the CellTiter-Glo reagent was added directly to each well for 10-minute incubation. The plate was then read on a FlexStation 3 microplate luminometer (Molecular Devices, USA) to monitor the luminescence signal generated by the luciferase-catalyzed reaction of luciferin and ATP. The percent of growth inhibition was calculated using the following formula: (untreated cells − treated cells)/(untreated cells − background without cells) ∗ 100.

HEC-1-A = HEC-1-A (Uterus), 20 micromolar, 72 hrs
Procedure: as §1

T47D = T47D (Breast), 20 micromolar, 72 hrs
Procedure: as §1

TCCSUP = TCCSUP (Urinary bladder), 20 micromolar, 72 hrs
Procedure: as §1

T98G = T98G (Brain), 20 micromolar, 72 hrs
Procedure: as §1

NCI-H2405 = NCI-H2405 (Lung), 20 micromolar, 72 hrs
Procedure: as §1

SW13 = SW13 (Adrenal gland), 20 micromolar, 72 hrs
Procedure: as §1

NCI-H1770 = NCI-H1770 (Lung), 20 micromolar, 72 hrs
Procedure: as §1

HGC-27 = HGC-27 (Stomach), 20 micromolar, 72 hrs
Procedure: as §1

CW-2 = CW-2 (Colon), 20 micromolar, 72 hrs
Procedure: as §1

A704 = A704 (Kidney), 20 micromolar, 72 hrs
Procedure: as §1

HT-1197 = HT-1197 (Urinary bladder), 20 micromolar, 72 hrs
Procedure: as §1

RL95 = RL95 (Uterus), 20 micromolar, 72 hrs
Procedure: as §1

HCC1599 = HCC1599 (Breast), 20 micromolar, 72 hrs
Procedure: as §1

J82 = J82 (Urinary bladder), 20 micromolar, 72 hrs
Procedure: as §1

M059J = M059J (Brain), 20 micromolar, 72 hrs
Procedure: as §1

C3A = C3A (Liver), 20 micromolar, 72 hrs
Procedure: as §1

HCC1569 = HCC1569 (Breast), 20 micromolar, 72 hrs
Procedure: as §1

MSTO-211-H = MSTO-211-H (Lung), 20 micromolar, 72 hrs
Procedure: as §1

A498 = A498 (listed under Lung), 20 micromolar, 72 hrs
Procedure: as §1

BT-549 = BT-549 (Breast), 20 micromolar, 72 hrs
Procedure: as §1

ChaGo-K-1 = ChaGo-K-1 (Lung), 20 micromolar, 72 hrs
Procedure: as §1

C8166 = C8166 (Leukemia), 20 micromolar, 72 hrs
Procedure: as §1

NCI-H28 = NCI-H28 (Lung), 20 micromolar, 72 hrs
Procedure: as §1

NCI-H1623 = NCI-H1623 (Lung), 20 micromolar, 72 hrs
Procedure: as §1

NCI-H524 = NCI-H524 (Lung), 20 micromolar, 72 hrs
Procedure: as §1

ZR-75-30 = ZR-75-30 (Breast), 20 micromolar, 72 hrs
Procedure: as §1

CCF-STTG1 = CCF-STTG1 (Brain), 20 micromolar, 72 hrs
Procedure: as §1

Panc 03.27 = Panc 03.27 (Pancreas), 20 micromolar, 72 hrs
Procedure: as §1

BT-474 = BT-474 (Breast), 20 micromolar, 72 hrs
Procedure: as §1

Bel-7402 = Bel-7402 (Liver), 20 micromolar, 72 hrs
Procedure: as §1

HCC1395 = HCC1395 (Breast), 20 micromolar, 72 hrs
Procedure: as §1

HCC1937 = HCC1937 (Breast), 20 micromolar, 72 hrs
Procedure: as §1

NCI-H2347 = NCI-H2347 (Lung), 20 micromolar, 72 hrs
Procedure: as §1

Colo 205 = conditions: Colo 205, 20 micromolar, 72 hrs
Procedure: as §1

NCI-H1694 = NCI-H1694 (Lung), 20 micromolar, 72 hrs
Procedure: as §1

Row | Structure (SMILES) | Percent Inhibition (HPAF-II) | Percent Inhibition (HEC-1-A) | Percent Inhibition (T47D) | Percent Inhibition (TCCSUP) | Percent Inhibition (T98G) | Percent Inhibition (NCI-H2405) | Percent Inhibition (SW13) | Percent Inhibition (NCI-H1770) | Percent Inhibition (HGC-27) | Percent Inhibition (CW-2) | Percent Inhibition (A704) | Percent Inhibition (HT-1197) | Percent Inhibition (RL95) | Percent Inhibition (HCC1599) | Percent Inhibition (J82) | Percent Inhibition (M059J) | Percent Inhibition (C3A) | Percent Inhibition (HCC1569) | Percent Inhibition (MSTO-211-H) | Percent Inhibition (A498) | other results
1 | O=c1c2cc(O)ccc2oc2cccc(O)c12 [gl-20] | 19% | 41% | 39% | 67% | 73% | -5% | 33% | -4% | 69% | 47% | 13% | 77% | 67% | 83% | 60% | 63% | 58% | 57% | 59% | 38% | Percent Inhibition (BT-549): 46%; Percent Inhibition (ChaGo-K-1): 57%; Percent Inhibition (C8166): 76%; Percent Inhibition (NCI-H28): 24%; Percent Inhibition (NCI-H1623): -13%; Percent Inhibition (NCI-H524): 91%; Percent Inhibition (ZR-75-30): 87%; Percent Inhibition (CCF-STTG1): 49%; Percent Inhibition (Panc 03.27): 52%; Percent Inhibition (BT-474): 50%; Percent Inhibition (Bel-7402): -3%; Percent Inhibition (HCC1395): 74%; Percent Inhibition (HCC1937): 62%; Percent Inhibition (NCI-H2347): 48%; Percent Inhibition (Colo 205): 3%; Percent Inhibition (NCI-H1694): 86%
2 | C=C(C)C(O)Cc1c(O)cc2oc3cc(O)c(O)c(CC=C(C)C)c3c(=O)c2c1O (stereo not drawn) [bn-17, Bannaxanthone B] | 14% | 46% | 45% | 79% | 94% | 7% | 52% | 12% | 62% | 68% | 19% | 44% | 45% | 84% | 52% | 48% | 39% | 51% | 70% | 54% | Percent Inhibition (BT-549): 34%; Percent Inhibition (ChaGo-K-1): 73%; Percent Inhibition (C8166): 71%; Percent Inhibition (NCI-H28): 69%; Percent Inhibition (NCI-H1623): 20%; Percent Inhibition (NCI-H524): -19%; Percent Inhibition (ZR-75-30): 81%; Percent Inhibition (CCF-STTG1): 43%; Percent Inhibition (Panc 03.27): 44%; Percent Inhibition (BT-474): 27%; Percent Inhibition (Bel-7402): 57%; Percent Inhibition (HCC1395): 83%; Percent Inhibition (HCC1937): 58%; Percent Inhibition (NCI-H2347): 23%; Percent Inhibition (Colo 205): 57%; Percent Inhibition (NCI-H1694): 96%
3 | CC(C)=CCc1c2c(c3oc4c(O)c(O)ccc4c(=O)c3c1O)C=CC(C)(C)O2 [Compound C-6] | -10% | 1% | 6% | 11% | 11% | -5% | 1% | 5% | 18% | 5% | -8% | 20% | 9% | 52% | 13% | -21% | 17% | 7% | 1% | 10% | Percent Inhibition (BT-549): -6%; Percent Inhibition (ChaGo-K-1): 7%; Percent Inhibition (C8166): 12%; Percent Inhibition (NCI-H28): 12%; Percent Inhibition (NCI-H1623): -13%; Percent Inhibition (NCI-H524): -61%; Percent Inhibition (ZR-75-30): 64%; Percent Inhibition (CCF-STTG1): 16%; Percent Inhibition (Panc 03.27): 21%; Percent Inhibition (BT-474): -18%; Percent Inhibition (Bel-7402): 5%; Percent Inhibition (HCC1395): 14%; Percent Inhibition (HCC1937): 21%; Percent Inhibition (NCI-H2347): 7%; Percent Inhibition (Colo 205): 3%; Percent Inhibition (NCI-H1694): 19%

Source: article PMC4450297, “Screening Active Compounds from Garcinia Species Native to China Reveals Novel Compounds Targeting the STAT/JAK Signaling Pathway” (BioMed Research International, 2015)
